# From publication PMC5443783, “Prostaglandin E2 glyceryl ester is an endogenous agonist of the nucleotide receptor P2Y6” (Scientific Reports, 2017)
# What was measured:
# Assay in all cases: PathHunter β-Arrestin orphan GPCR panel
# Format in all cases: cell-based
# Settings in all cases: agonist mode, 0.001 µM
# GPR152 = biological target: T1, GPR152 (Homo sapiens, UniProt Q8TDT2)
# T1 construct: purchased DiscoveRx (PathHunter β-Arrestin orphan GPCR panel)
# Source text: (§1) For screening orphan GPCRs as possible targets for PGE2-G, the PathHunter® β-Arrestin assay (DiscoveRx Co., USA) was used. It monitors the activation of a GPCR by utilizing an enzyme fragment complementation assay with β-galactosidase as the functional reporter. Briefly, the enzyme is split into two complementary portions expressed as fusion proteins in the cell. The enzyme acceptor is fused to β2-arrestin, and the ProLink donor peptide is fused to the GPCR of interest. Upon GPCR stimulation, β2-arrestin is recruited to the receptor, bringing the two fragments of β-galactosidase together. This generates an active enzyme that can convert a chemiluminescent substrate, generating a signal detectable on a standard microplate reader (see manufacturer’s instructions). In total, 78 GPCRs, previously considered orphan and individually transfected into cells, were screened by DiscoveRx (Supplementary Table S1). The percentage activity given in the results is calculated using the following formula: % activity = 100% × (mean RLU of test sample - mean RLU of vehicle control)/mean RLU of vehicle control).
# GPR143 = biological target: T2, GPR143 (Homo sapiens, UniProt P51810)
# T2 construct: purchased DiscoveRx (PathHunter β-Arrestin orphan GPCR panel)
# T2 sequence (P51810 whole entry): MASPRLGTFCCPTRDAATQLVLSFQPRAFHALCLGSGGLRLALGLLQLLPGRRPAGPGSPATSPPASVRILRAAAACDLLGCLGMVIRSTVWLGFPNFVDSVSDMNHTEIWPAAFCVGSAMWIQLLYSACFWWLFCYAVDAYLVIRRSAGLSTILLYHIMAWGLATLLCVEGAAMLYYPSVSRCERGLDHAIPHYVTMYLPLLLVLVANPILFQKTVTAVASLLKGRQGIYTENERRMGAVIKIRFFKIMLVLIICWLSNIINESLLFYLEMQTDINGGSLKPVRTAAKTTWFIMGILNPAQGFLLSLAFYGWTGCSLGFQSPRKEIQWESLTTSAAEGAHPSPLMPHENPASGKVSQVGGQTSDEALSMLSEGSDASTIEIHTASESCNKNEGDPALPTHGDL
# Source text: as §1
# GPR161 = biological target: T3, GPR161 (Homo sapiens, UniProt Q8N6U8)
# T3 construct: purchased DiscoveRx (PathHunter β-Arrestin orphan GPCR panel)
# Source text: as §1
# GPR17 = biological target: T4, GPR17 (Homo sapiens, UniProt Q13304)
# T4 construct: purchased DiscoveRx (PathHunter β-Arrestin orphan GPCR panel)
# Source text: as §1
# GPR37 = biological target: T5, GPR37 (Homo sapiens, UniProt O15354)
# T5 construct: purchased DiscoveRx (PathHunter β-Arrestin orphan GPCR panel)
# Source text: as §1
# GPR18 = biological target: T6, GPR18 (Homo sapiens, UniProt Q14330)
# T6 construct: purchased DiscoveRx (PathHunter β-Arrestin orphan GPCR panel)
# T6 sequence (Q14330 whole entry): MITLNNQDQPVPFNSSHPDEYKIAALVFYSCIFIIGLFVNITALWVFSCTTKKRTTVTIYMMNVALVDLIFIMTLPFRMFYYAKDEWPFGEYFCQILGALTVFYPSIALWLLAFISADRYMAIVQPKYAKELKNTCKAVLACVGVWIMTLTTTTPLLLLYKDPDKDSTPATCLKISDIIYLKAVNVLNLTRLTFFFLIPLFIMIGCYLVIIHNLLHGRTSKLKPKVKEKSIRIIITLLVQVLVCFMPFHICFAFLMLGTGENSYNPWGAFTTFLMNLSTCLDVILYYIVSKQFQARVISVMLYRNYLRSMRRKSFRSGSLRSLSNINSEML
# Source text: as §1
# GPR149 = biological target: T7, GPR149 (Homo sapiens, UniProt Q86SP6)
# T7 construct: purchased DiscoveRx (PathHunter β-Arrestin orphan GPCR panel)
# Source text: as §1
# GPR101 = biological target: T8, GPR101 (Homo sapiens, UniProt Q96P66)
# T8 construct: purchased DiscoveRx (PathHunter β-Arrestin orphan GPCR panel)
# Source text: as §1
# GHSR1B = biological target: T9, GHSR1B (Homo sapiens, UniProt Q92847)
# T9 construct: purchased DiscoveRx (PathHunter β-Arrestin orphan GPCR panel)
# Source text: as §1
# GPR32 = biological target: T10, GPR32 (Homo sapiens, UniProt O75388)
# T10 construct: purchased DiscoveRx (PathHunter β-Arrestin orphan GPCR panel)
# T10 sequence (O75388 whole entry): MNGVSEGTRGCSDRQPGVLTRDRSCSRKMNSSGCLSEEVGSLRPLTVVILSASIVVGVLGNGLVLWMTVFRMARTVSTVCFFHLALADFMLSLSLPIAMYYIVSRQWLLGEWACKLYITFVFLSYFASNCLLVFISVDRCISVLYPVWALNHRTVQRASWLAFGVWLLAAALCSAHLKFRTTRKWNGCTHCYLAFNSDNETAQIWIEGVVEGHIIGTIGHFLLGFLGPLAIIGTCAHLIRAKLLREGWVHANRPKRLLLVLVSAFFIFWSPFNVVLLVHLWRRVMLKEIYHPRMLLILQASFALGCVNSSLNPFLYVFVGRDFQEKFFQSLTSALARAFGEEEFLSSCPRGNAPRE
# Source text: as §1
# GPR15 = biological target: T11, GPR15 (Homo sapiens, UniProt P49685)
# T11 construct: purchased DiscoveRx (PathHunter β-Arrestin orphan GPCR panel)
# Source text: as §1
# GPR182 = biological target: T12, GPR182 (Homo sapiens, UniProt O15218)
# T12 construct: purchased DiscoveRx (PathHunter β-Arrestin orphan GPCR panel)
# T12 sequence (O15218 whole entry): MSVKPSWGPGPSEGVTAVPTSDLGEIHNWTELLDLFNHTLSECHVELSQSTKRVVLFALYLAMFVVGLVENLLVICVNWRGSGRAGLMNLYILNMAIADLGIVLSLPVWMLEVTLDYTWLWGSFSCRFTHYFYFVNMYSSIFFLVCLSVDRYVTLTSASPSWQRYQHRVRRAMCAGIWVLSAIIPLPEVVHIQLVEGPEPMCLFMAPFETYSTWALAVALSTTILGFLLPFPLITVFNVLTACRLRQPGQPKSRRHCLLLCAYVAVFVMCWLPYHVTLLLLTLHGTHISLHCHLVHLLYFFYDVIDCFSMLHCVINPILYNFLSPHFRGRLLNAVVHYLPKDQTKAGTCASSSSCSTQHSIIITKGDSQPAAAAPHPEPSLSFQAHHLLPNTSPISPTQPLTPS
# Source text: as §1
# CCRL2 = biological target: T13, CCRL2 (Homo sapiens, UniProt O00421)
# T13 construct: purchased DiscoveRx (PathHunter β-Arrestin orphan GPCR panel)
# Source text: as §1
# BAI1 = biological target: T14, BAI1 (Homo sapiens, UniProt O14514)
# T14 construct: purchased DiscoveRx (PathHunter β-Arrestin orphan GPCR panel)
# Source text: as §1
# GPR157 = biological target: T15, GPR157 (Homo sapiens, UniProt Q5UAW9)
# T15 construct: purchased DiscoveRx (PathHunter β-Arrestin orphan GPCR panel)
# Source text: as §1
# GPR30 = biological target: T16, GPR30 (Homo sapiens, UniProt Q99527)
# T16 construct: purchased DiscoveRx (PathHunter β-Arrestin orphan GPCR panel)
# Source text: as §1
# GPR139 = biological target: T17, GPR139 (Homo sapiens, UniProt Q6DWJ6)
# T17 construct: purchased DiscoveRx (PathHunter β-Arrestin orphan GPCR panel)
# Source text: as §1
# GPR3 = biological target: T18, GPR3 (Homo sapiens, UniProt P46089)
# T18 construct: purchased DiscoveRx (PathHunter β-Arrestin orphan GPCR panel)
# Source text: as §1
# EBI2 = biological target: T19, EBI2 (Homo sapiens, UniProt P32249)
# T19 construct: purchased DiscoveRx (PathHunter β-Arrestin orphan GPCR panel)
# Source text: as §1
# GPR132 = biological target: T20, GPR132 (Homo sapiens, UniProt Q9UNW8)
# T20 construct: purchased DiscoveRx (PathHunter β-Arrestin orphan GPCR panel)
# T20 sequence (Q9UNW8 whole entry): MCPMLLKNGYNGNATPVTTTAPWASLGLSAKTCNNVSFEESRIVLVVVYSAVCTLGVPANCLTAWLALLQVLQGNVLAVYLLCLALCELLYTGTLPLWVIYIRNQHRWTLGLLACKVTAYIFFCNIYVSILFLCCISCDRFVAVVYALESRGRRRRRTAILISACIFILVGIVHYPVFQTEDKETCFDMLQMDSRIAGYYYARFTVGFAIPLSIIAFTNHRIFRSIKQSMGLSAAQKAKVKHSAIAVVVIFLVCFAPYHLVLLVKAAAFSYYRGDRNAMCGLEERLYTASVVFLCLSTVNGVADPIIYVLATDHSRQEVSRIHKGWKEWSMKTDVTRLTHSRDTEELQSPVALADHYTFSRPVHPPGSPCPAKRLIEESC
# Source text: as §1
# GPR20 = biological target: T21, GPR20 (Homo sapiens, UniProt Q99678)
# T21 construct: purchased DiscoveRx (PathHunter β-Arrestin orphan GPCR panel)
# T21 sequence (Q99678 whole entry): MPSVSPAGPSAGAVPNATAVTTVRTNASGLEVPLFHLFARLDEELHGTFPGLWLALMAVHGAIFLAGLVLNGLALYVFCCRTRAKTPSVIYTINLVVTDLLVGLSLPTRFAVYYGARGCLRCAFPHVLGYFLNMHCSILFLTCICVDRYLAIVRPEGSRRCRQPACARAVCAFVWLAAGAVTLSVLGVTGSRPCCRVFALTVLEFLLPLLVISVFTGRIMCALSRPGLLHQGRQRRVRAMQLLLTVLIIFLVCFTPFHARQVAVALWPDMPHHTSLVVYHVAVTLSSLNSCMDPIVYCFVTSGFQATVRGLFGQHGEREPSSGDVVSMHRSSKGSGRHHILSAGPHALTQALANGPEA
# Source text: as §1
# GPR173 = biological target: T22, GPR173 (Homo sapiens, UniProt Q9NS66)
# T22 construct: purchased DiscoveRx (PathHunter β-Arrestin orphan GPCR panel)
# Source text: as §1
# GPR141 = biological target: T23, GPR141 (Homo sapiens, UniProt Q7Z602)
# T23 construct: purchased DiscoveRx (PathHunter β-Arrestin orphan GPCR panel)
# Source text: as §1
# GPR26 = biological target: T24, GPR26 (Homo sapiens, UniProt Q8NDV2)
# T24 construct: purchased DiscoveRx (PathHunter β-Arrestin orphan GPCR panel)
# T24 sequence (Q8NDV2 whole entry): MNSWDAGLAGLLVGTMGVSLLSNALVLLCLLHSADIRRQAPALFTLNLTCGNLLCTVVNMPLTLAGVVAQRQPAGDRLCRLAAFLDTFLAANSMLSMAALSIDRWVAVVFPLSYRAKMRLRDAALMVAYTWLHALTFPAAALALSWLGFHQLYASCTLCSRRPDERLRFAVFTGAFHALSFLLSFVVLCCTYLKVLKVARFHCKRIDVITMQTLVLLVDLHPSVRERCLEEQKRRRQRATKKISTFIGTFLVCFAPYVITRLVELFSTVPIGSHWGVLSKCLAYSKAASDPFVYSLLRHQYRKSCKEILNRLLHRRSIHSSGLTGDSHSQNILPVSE
# Source text: as §1
# GPR12 = biological target: T25, GPR12 (Homo sapiens, UniProt P47775)
# T25 construct: purchased DiscoveRx (PathHunter β-Arrestin orphan GPCR panel)
# Source text: as §1
# CMKLR2 = biological target: T26, CMKLR2 (Homo sapiens, UniProt P46091)
# T26 construct: purchased DiscoveRx (PathHunter β-Arrestin orphan GPCR panel)
# Source text: as §1
# GPR171 = biological target: T27, GPR171 (Homo sapiens, UniProt O14626)
# T27 construct: purchased DiscoveRx (PathHunter β-Arrestin orphan GPCR panel)
# Source text: as §1
# GPR103 = biological target: T28, GPR103 (Homo sapiens, UniProt Q96P65)
# T28 construct: purchased DiscoveRx (PathHunter β-Arrestin orphan GPCR panel)
# Source text: as §1
# BAI2 = biological target: T29, BAI2 (Homo sapiens, UniProt O60241)
# T29 construct: purchased DiscoveRx (PathHunter β-Arrestin orphan GPCR panel)
# Source text: as §1
# GPR123 = biological target: T30, GPR123 (Homo sapiens, UniProt Q86SQ6)
# T30 construct: purchased DiscoveRx (PathHunter β-Arrestin orphan GPCR panel)
# Source text: as §1
# GPR176 = biological target: T31, GPR176 (Homo sapiens, UniProt Q14439)
# T31 construct: purchased DiscoveRx (PathHunter β-Arrestin orphan GPCR panel)
# T31 sequence (Q14439 whole entry): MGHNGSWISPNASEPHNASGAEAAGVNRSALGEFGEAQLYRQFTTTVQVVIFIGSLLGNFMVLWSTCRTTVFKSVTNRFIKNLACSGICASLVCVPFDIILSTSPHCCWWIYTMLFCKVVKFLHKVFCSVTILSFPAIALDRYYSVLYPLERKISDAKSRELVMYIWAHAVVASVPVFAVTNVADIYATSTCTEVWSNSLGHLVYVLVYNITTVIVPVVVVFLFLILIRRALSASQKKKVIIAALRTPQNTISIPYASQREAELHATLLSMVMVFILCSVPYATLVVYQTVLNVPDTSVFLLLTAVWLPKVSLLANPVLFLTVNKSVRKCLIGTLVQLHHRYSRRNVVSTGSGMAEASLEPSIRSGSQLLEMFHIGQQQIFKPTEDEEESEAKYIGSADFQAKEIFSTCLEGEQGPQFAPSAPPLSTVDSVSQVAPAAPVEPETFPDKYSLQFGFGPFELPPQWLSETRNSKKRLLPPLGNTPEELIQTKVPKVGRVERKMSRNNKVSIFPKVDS
# Source text: as §1
# BAI3 = biological target: T32, BAI3 (Homo sapiens, UniProt O60242)
# T32 construct: purchased DiscoveRx (PathHunter β-Arrestin orphan GPCR panel)
# T32 sequence (O60242 25-1522): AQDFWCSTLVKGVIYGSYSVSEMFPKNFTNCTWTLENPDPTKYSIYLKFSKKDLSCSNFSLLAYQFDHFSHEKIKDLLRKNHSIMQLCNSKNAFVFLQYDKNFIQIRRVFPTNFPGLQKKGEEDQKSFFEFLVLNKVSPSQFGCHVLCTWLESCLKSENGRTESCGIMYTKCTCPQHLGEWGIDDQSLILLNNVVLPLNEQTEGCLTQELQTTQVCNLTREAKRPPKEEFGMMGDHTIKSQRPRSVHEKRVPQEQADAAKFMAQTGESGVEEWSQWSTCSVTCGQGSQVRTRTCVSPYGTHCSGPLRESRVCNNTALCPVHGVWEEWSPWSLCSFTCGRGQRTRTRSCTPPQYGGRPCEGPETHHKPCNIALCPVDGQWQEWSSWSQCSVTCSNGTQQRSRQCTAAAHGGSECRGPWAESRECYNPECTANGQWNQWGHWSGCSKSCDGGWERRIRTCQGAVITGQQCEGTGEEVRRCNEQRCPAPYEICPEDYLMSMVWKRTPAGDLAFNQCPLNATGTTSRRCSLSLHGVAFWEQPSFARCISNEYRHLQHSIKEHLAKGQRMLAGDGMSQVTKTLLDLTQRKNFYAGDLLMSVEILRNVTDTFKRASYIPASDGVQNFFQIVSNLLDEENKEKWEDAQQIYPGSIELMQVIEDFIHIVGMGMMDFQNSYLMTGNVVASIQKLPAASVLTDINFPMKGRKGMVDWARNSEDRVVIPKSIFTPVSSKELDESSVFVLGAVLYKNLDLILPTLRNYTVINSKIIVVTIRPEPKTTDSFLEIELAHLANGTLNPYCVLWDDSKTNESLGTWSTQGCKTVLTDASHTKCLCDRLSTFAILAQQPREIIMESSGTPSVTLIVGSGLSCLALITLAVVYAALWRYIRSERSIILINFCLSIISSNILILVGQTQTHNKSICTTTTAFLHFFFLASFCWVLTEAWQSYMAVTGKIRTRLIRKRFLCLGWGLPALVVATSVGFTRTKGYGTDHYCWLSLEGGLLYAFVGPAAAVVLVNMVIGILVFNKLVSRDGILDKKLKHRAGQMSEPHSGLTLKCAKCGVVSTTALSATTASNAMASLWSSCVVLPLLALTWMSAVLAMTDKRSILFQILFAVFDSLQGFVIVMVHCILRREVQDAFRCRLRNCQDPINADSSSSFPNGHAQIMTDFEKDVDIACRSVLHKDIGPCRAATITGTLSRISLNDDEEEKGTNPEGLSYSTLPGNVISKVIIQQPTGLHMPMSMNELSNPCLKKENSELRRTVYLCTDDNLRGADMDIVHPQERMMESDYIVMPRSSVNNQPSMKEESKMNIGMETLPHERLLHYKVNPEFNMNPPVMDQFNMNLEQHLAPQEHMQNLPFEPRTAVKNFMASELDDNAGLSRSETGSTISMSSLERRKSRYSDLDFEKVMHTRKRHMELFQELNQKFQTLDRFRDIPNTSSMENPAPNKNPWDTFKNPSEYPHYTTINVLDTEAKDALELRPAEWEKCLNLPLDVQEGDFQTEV
# Source text: as §1
# GPR135 = biological target: T33, GPR135 (Homo sapiens, UniProt Q8IZ08)
# T33 construct: purchased DiscoveRx (PathHunter β-Arrestin orphan GPCR panel)
# Source text: as §1
# GPR162 = biological target: T34, GPR162 (Homo sapiens, UniProt Q16538)
# T34 construct: purchased DiscoveRx (PathHunter β-Arrestin orphan GPCR panel)
# Source text: as §1
# ADMR = biological target: T35, ADMR (Homo sapiens, UniProt O15218)
# T35 construct: purchased DiscoveRx (PathHunter β-Arrestin orphan GPCR panel)
# T35 sequence (O15218 whole entry): as the sequence (O15218 whole entry) above
# Source text: as §1
# GPR146 = biological target: T36, GPR146 (Homo sapiens, UniProt Q96CH1)
# T36 construct: purchased DiscoveRx (PathHunter β-Arrestin orphan GPCR panel)
# Source text: as §1
# GPR148 = biological target: T37, GPR148 (Homo sapiens, UniProt Q8TDV2)
# T37 construct: purchased DiscoveRx (PathHunter β-Arrestin orphan GPCR panel)
# T37 sequence (Q8TDV2 whole entry): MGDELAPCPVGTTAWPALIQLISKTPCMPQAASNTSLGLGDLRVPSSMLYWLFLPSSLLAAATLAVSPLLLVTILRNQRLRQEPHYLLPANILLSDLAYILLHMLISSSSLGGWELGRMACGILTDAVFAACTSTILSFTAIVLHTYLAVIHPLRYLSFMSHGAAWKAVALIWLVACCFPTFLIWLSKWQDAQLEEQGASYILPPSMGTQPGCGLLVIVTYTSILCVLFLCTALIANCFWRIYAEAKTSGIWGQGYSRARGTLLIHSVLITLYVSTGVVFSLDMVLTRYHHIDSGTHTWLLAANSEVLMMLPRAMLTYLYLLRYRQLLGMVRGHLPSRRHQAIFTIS
# Source text: as §1
# GPR37L1 = biological target: T38, GPR37L1 (Homo sapiens, UniProt O60883)
# T38 construct: purchased DiscoveRx (PathHunter β-Arrestin orphan GPCR panel)
# Source text: as §1
# GPR27 = biological target: T39, GPR27 (Homo sapiens, UniProt Q9NS67)
# T39 construct: purchased DiscoveRx (PathHunter β-Arrestin orphan GPCR panel)
# Source text: as §1
# GPR151 = biological target: T40, GPR151 (Homo sapiens, UniProt Q8TDV0)
# T40 construct: purchased DiscoveRx (PathHunter β-Arrestin orphan GPCR panel)
# Source text: as §1
# GPR107 = biological target: T41, GPR107 (Homo sapiens, UniProt Q5VW38)
# T41 construct: purchased DiscoveRx (PathHunter β-Arrestin orphan GPCR panel)
# Source text: as §1
# GPR31 = biological target: T42, GPR31 (Homo sapiens, UniProt O00270)
# T42 construct: purchased DiscoveRx (PathHunter β-Arrestin orphan GPCR panel)
# Source text: as §1
# GPR23 = biological target: T43, GPR23 (Homo sapiens, UniProt Q99677)
# T43 construct: purchased DiscoveRx (PathHunter β-Arrestin orphan GPCR panel)
# Source text: as §1
# GPR142 = biological target: T44, GPR142 (Homo sapiens, UniProt Q7Z601)
# T44 construct: purchased DiscoveRx (PathHunter β-Arrestin orphan GPCR panel)
# Source text: as §1
# DARC = biological target: T45, DARC (Homo sapiens, UniProt Q16570)
# T45 construct: purchased DiscoveRx (PathHunter β-Arrestin orphan GPCR panel)
# Source text: as §1
# GPR25 = biological target: T46, GPR25 (Homo sapiens, UniProt O00155)
# T46 construct: purchased DiscoveRx (PathHunter β-Arrestin orphan GPCR panel)
# Source text: as §1
# GPR150 = biological target: T47, GPR150 (Homo sapiens, UniProt Q8NGU9)
# T47 construct: purchased DiscoveRx (PathHunter β-Arrestin orphan GPCR panel)
# Source text: as §1
smiles,measurement,setting,value
CCCCC[C@H](O)/C=C/[C@H]1[C@H](O)CC(=O)[C@@H]1C/C=C\CCCC(=O)NC(CO)CO [PGE2-SA],Mean RLU,GPR152,178980 RLU
same,Mean RLU,GPR143,91680 RLU
same,Mean RLU,GPR161,20300 RLU
same,Mean RLU,GPR17,805440 RLU
same,Mean RLU,GPR37,822100 RLU
same,Mean RLU,GPR18,520 RLU
same,Mean RLU,GPR149,29340 RLU
same,Mean RLU,GPR101,30940 RLU
same,Mean RLU,GHSR1B,2580 RLU
same,Mean RLU,GPR32,129240 RLU
same,Mean RLU,GPR15,9440 RLU
same,Mean RLU,GPR182,899260 RLU
same,Mean RLU,CCRL2,8400 RLU
same,Mean RLU,BAI1,864280 RLU
same,Mean RLU,GPR157,356620 RLU
same,Mean RLU,GPR30,8540 RLU
same,Mean RLU,GPR139,307380 RLU
same,Mean RLU,GPR3,1524920 RLU
same,Mean RLU,EBI2,46540 RLU
same,Mean RLU,GPR132,620480 RLU
same,Mean RLU,GPR20,74500 RLU
same,Mean RLU,GPR173,62220 RLU
same,Mean RLU,GPR141,30420 RLU
same,Mean RLU,GPR26,2200 RLU
same,Mean RLU,GPR12,680 RLU
same,Mean RLU,CMKLR2,17240 RLU
same,Mean RLU,GPR171,4880 RLU
same,Mean RLU,GPR103,56020 RLU
same,Mean RLU,BAI2,15400 RLU
same,Mean RLU,GPR123,1221720 RLU
same,Mean RLU,GPR176,380580 RLU
same,Mean RLU,BAI3,21960 RLU
same,Mean RLU,GPR135,16680 RLU
same,Mean RLU,GPR162,26360 RLU
same,Mean RLU,ADMR,514420 RLU
same,Mean RLU,GPR146,15800 RLU
same,Mean RLU,GPR148,3640 RLU
same,Mean RLU,GPR37L1,36440 RLU
same,Mean RLU,GPR27,219760 RLU
same,Mean RLU,GPR151,57420 RLU
same,Mean RLU,GPR107,304860 RLU
same,Mean RLU,GPR31,7680 RLU
same,Mean RLU,GPR23,990600 RLU
same,Mean RLU,GPR142,2660 RLU
same,Mean RLU,DARC,105120 RLU
same,Mean RLU,GPR25,6140 RLU
same,Mean RLU,GPR150,31360 RLU
